System: TRPV3, IL-6, TNF-α, and p-P65 protein expressions
Assay: Western blot of TRPV3 and NF-κB pathway proteins in mouse ear tissues
Type: in vivo
Settings: topical ROSA 0.1, 1 and 10 mM; mouse ear tissues; day 5
Description: Skin sensitizer Car was dissolved in saline solution containing 30% ethanol. The dorsal skin or ear of mice was swabbed with 3% Car for four consecutive days. To investigate the effects of ROSA, it was diluted to concentration of 0.1/1/10 mM with saline and topically applied on the ear and dorsal skin once a day for 4 days. The control group only received swabs with the solvent.
Skin or ear skin tissues were homogenized in radioimmunoprecipitation assay buffer (Thermo Fisher Scientific) containing protease inhibitors at a ratio of 100:1 per 10 mg tissue and centrifuged at 15,000 rpm for 15 min. The protein concentration was quantified using a bicinchoninic acid kit (Thermo Fisher Scientific), followed by SDS-PAGE for Western blot analysis. Protein transfer was performed at 150 mA for 90 min, and the transferred membranes (Millipore) were incubated with primary antibodies (TRPV3 antibody, 1:1000, TNF-α antibody, 1:1000, IL-6 antibody, 1:2500, P65 antibody, 1:1000 and p-P65 antibody, 1:1000) in 5% skim milk (Becton, Dickinson and Company). […] Images were quantified using the Image Lab software (https://www.bio-rad.com/zh-cn/product/image-lab-software?ID=KRE6P5E8Z).

O=C(/C=C/c1ccc(O)c(O)c1)O[C@H](Cc1ccc(O)c(O)c1)C(=O)O [ROSA, rosmarinic acid]
protein expressions of TRPV3, IL-6, TNF-α, and p-P65 induced by Car: downregulated the upregulation

From PMC12206033, “Selective inhibition of TRPV3 channel by natural rosmarinic acid and its analogs for alleviation of skin lesions through downregulation of NF-κB pathway” (The Journal of Biological Chemistry, 2025)
